The values that follow come from patent US20050267133A1, “Pyrazolopyrimidines as kinase inhibitors” (priority 2002, published 2005).

Assay [1] concerns the target T1, GST-TIE2 (intracellular domains of human TIE2) (Homo sapiens, UniProt Q02763).
T1 construct: made in house
Nature of the assay: TIE-2 Enzyme Assay (TIE2-E), LANCE method. Type of assay: biochemical. Particulars: preactivated GST-TIE2, 1 μM D1-15 peptide, 80 uM ATP, 30 mins at room temperature; pIC50 = -log IC50 in Molar. An excerpt:
The TIE-2 enzyme assay used the LANCE method (Wallac) and GST-TIE2, baculovirus expressed recombinant constructs of the intracellular domains of human TIE2 (amino acids 762-1104, GenBank Accession # L06139) tagged by GST). The method measured the ability of the purified enzymes to catalyse the transfer of the γ-phosphate from ATP onto tyrosine residues in a biotinylated synthetic peptide, D1-15 (biotin-C6-LEARLVAYEGWVAGKKKamide). This peptide phosphorylation was detected using the following procedure: for enzyme preactivation, GST-TIE2 was incubated for 30 mins at room temperature with 2 mM ATP, 5 mM MgCl2 and 12.5 mM DTT in 22.5 mM HEPES buffer (pH7.4). Preactivated GST-TIE2 was incubated for 30 mins at room temperature in 96 well plates with 1 μM D1-15 peptide, 80 uM ATP, 10 mM MgCl2, 0.1 mg/ml BSA and the test compound (diluted from a 10 mM stock in DMSO, final DMSO concentration was 2.4%) in 1 mM HEPES (pH7.4). The reaction was stopped by the addition of EDTA (final concentration 45 mM). Streptavidin linked-APC (allophycocyanin, Molecular Probe) and Europium-labeled anti-phosphorylated tyrosine antibody (Wallac) were then added at the final concentration of 17 μg/well and 2.1 μg/well, respectively. The APC signal was measured using an ARVO multilabel counter. (Wallac Berthold Japan). The percent inhibition of activity was calculated relative to blank control wells.
The concentration of test compound that inhibits 50% of activity (IC50) was interpolated using nonlinear regression (Levernberg-Marquardt) and the equation, y=Vmax (1−x/(K+x))+Y2, where “K” was equal to the IC50. The IC50 values were converted to pIC50 values, i.e., −log IC50 in Molar concentration.
Test compounds are employed in free or salt form.

The next assay addresses GSK-3β (Homo sapiens, UniProt P49841). The assay is described as follows: GSK3 scintillation proximity assay (SPA) kinase assay. Type of assay: biochemical. Particulars: 20 nM kinase, 2.5 uM ATP, biotinylated glycogen synthase peptide, 40 minutes at room temperature; -log IC50 in Molar; read-out: GSK-3 pIC50 (converted). An excerpt:
The phosphorylated biotinylated peptide is then captured onto streptavidin coated scintillation proximity assay (SPA) beads from Amersham Technology, where the signal from the ^33P is amplified via the scintillant contained in the beads.
GSK-3β is commercially available or may be cloned and expressed in E. coli using standard techniques to produce soluble, active protein. The production of active protein involves purification in two steps using Metal Chelate and Ion Exchange Chromatography. Protein eluting from Ion Exchange provides >90% pure product that may then be concentrated for use in high throughput screening.
The kinase was assayed at a concentration of 20 nM final in 100 mM HEPES, pH 7.2 containing 10 mM magnesium chloride, 0.1 mg/mL bovine serum albumin, 1 mM dithiothreitol, 0.3 mg/mL heparin, 2.8 uM peptide substrate, 2.5 uM ATP, and 0.2 uCi/well [[…]-^33P]-ATP. After 40 minutes incubation at room temperature, the reaction was stopped by addition of 100 mM EDTA and […] in 100 mM HEPES, pH7.2 followed by an additional solution of diluted Streptavidin coated SPA beads in PBS, pH 7.2 to give a final concentration of 0.25 mg of beads per assay well in a 96-well microtiter plate.
10 mM stock solutions of the compounds of the invention in 100% DMSO are generated as a first step in the screening process. The second step involves the creation of dose response plates where these compounds are diluted 10-fold in 100% DMSO to 1 mM concentrations and subsequently serially diluted 3-fold in 100% DMSO across the plate by automated liquid handling such that the final top concentration of inhibitor is 0.033 mM in the 30 uL kinase assay. The third step involves the creation of the assay plates. This is achieved by transferring 1 uL of the compounds to assay plates by automated liquid handling. The fourth step is to perform the assay as described and count the resulting plates in the Packard TopCount NXT microplate scintillation and luminescence counter.
The final step is data acquisition and analysis where IC50 values are generated for each compound by normalizing curve data to the equation 100*(U1−C2)/(C1−C2) (where U1 is the cpm value, C2 is the background, and C1 is the maximum number of counts), then fitting the normalized data to the equation y=Vmax*(1−(x/(K+x))). The IC50 values were converted to pIC50 values, i.e., −log IC50 in Molar concentration. The data is expressed below in Table 1.
For orientation: Scintillation proximity formats need no separation of bound from free tracer.

The structures appear in SMILES notation. Counter-ions that a name gives are not always drawn.

Sequence of GSK-3β (P49841 whole entry, species assumed): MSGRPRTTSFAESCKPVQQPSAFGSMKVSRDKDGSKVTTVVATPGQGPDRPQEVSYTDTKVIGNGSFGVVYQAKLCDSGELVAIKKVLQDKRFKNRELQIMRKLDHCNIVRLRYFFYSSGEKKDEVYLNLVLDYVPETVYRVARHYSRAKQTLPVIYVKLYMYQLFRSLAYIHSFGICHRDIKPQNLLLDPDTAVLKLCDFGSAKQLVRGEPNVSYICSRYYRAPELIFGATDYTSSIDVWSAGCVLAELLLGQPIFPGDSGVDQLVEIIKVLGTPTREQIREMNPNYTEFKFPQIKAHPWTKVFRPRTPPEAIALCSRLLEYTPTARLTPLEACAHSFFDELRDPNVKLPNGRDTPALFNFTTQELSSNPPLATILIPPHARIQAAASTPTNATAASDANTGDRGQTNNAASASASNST
T1 sequence (Q02763 762-1104): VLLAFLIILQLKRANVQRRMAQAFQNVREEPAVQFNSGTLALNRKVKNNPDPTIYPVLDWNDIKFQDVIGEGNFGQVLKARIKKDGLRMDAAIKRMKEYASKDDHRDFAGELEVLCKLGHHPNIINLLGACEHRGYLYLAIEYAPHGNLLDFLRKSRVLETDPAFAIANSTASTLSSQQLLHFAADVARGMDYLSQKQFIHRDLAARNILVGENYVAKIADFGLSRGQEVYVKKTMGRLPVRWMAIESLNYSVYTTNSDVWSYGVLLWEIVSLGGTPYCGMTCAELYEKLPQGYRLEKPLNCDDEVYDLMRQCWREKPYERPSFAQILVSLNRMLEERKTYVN

For `C(=N\Nc1ncnc2c1cnn2-c1ccccc1)/c1ccncc1` [Example 1, Isonicotinaldehyde (1-phenyl-1H-pyrazolo[3,4-d]pyrimidin-4-yl)hydrazone], the IC50 (in assay [1]; at GSK-3β) was 100 to 1000 nM each time.

For the molecule `C(=NNc1ncnc2c1cnn2-c1ccccc1)c1cccnc1` [Example 2, Nicotinaldehyde (1-phenyl-1H-pyrazolo[3,4-d]pyrimidin-4-yl)hydrazone], the results for the IC50 (in assay [1]; on GSK-3β) were 1000 to 10000 nM and less than 100 nM, respectively.

On to `COC(=O)c1cccc(/C=N/Nc2ncnc3c2cnn3-c2ccccc2)c1` [Example 3, Methyl 3-{(E)-[(1-phenyl-1H-pyrazolo[3,4-d]pyrimidin-4-yl)hydrazono]methyl}benzoate], for which the IC50 on GSK-3β is 100 to 1000 nM.

For `C(=N\Nc1ncnc2c1cnn2-c1ccccc1)/c1cnc2ccccc2c1` [Example 4, Quinoline-3-carbaldehyde (1-phenyl-1H-pyrazolo[3,4-d]pyrimidin-4-yl)hydrazone], the IC50 at GSK-3β is 100 to 1000 nM.

`OCCOc1cccc(/C=N/Nc2ncnc3c2cnn3-c2ccccc2)c1` [Example 5, 3-(2-Hydroxyethoxy)benzaldehyde (1-phenyl-1H-pyrazolo[3,4-d]pyrimidin-4-yl)hydrazone]: the IC50 in assay [1] is 100 to 1000 nM; on GSK-3β, less than 100 nM.

`CC(C)(C)OC(=O)N1CCC(/C=N/Nc2ncnc3c2cnn3-c2ccccc2)CC1` [Example 8, tert-butyl 4-{(E)-[(1-phenyl-1H-pyrazolo[3,4-d]pyrimidin-4-yl)hydrazono]methyl}piperidine-1-carboxylate]: the IC50 at GSK-3β was 100 to 1000 nM.

For the molecule `C(=N\Nc1ncnc2c1cnn2-c1ccccc1)/C1CCNCC1` [Example 9, Piperidine-4-carbaldehyde (1-phenyl-1H-pyrazolo[3,4-d]pyrimidin-4-yl)hydrazone trifluoroacetate], the IC50 at GSK-3β was 100 to 1000 nM.

As for `CC(=O)Nc1ccc(/C=N/Nc2ncnc3c2cnn3-c2ccccc2)cn1` [Example 10, N-(5-{(E)-[2-(1-phenyl-1H-pyrazolo[3,4-d]pyrimidin-4-yl)hydrazono]methyl}pyridin-2-yl)acetamide], the IC50 on GSK-3β is less than 100 nM.

Turning to `Nc1ccc(/C=N/Nc2ncnc3c2cnn3-c2ccccc2)cn1` [Example 12, 6-aminonicotinaldehyde (1-phenyl-1H-pyrazolo[3,4-d]pyrimidin-4-yl)hydrazone trifluoroacetate], on GSK-3β, the IC50 is 100 to 1000 nM.

Regarding `CN(C)c1ccc(/C=N/Nc2ncnc3c2cnn3-c2ccccc2)cn1` [Example 13, 6-(dimethylamino)nicotinaldehyde (1-phenyl-1H-pyrazolo[3,4-d]pyrimidin-4-yl)hydrazone], the IC50 on GSK-3β was 1000 to 10000 nM.

Turning to `Clc1cc(/C=N/Nc2ncnc3c2cnn3-c2ccccc2)ccn1` [Example 14, 2-chloroisonicotinaldehyde (1-phenyl-1H-pyrazolo[3,4-d]pyrimidin-4-yl)hydrazone], at GSK-3β, the IC50 was 100 to 1000 nM.

Regarding `COc1cc(/C=N/Nc2ncnc3c2cnn3-c2ccccc2)ccn1` [Example 15, 2-methoxyisonicotinaldehyde (1-phenyl-1H-pyrazolo[3,4-d]pyrimidin-4-yl)hydrazone], on GSK-3β, the IC50 was 100 to 1000 nM.

In the case of `Clc1ccc(/C=N/Nc2ncnc3c2cnn3-c2ccccc2)cn1` [Example 16, 6-chloronicotinaldehyde (1-phenyl-1H-pyrazolo[3,4-d]pyrimidin-4-yl)hydrazone], on GSK-3β, the IC50 is less than 100 nM.

Regarding `COc1ccc(/C=N/Nc2ncnc3c2cnn3-c2ccccc2)cn1` [Example 17, 6-methoxynicotinaldehyde (1-phenyl-1H-pyrazolo[3,4-d]pyrimidin-4-yl)hydrazone], the IC50 at GSK-3β was 100 to 1000 nM.

`CN(C)CCOc1ccc(/C=N/Nc2ncnc3c2cnn3-c2ccccc2)cn1` [Example 18, 6-[2-(dimethylamino)ethoxy]nicotinaldehyde (1-phenyl-1H-pyrazolo[3,4-d]pyrimidin-4-yl)hydrazone]: the IC50 on GSK-3β is 100 to 1000 nM.

`CN(C)CCNc1ccc(/C=N/Nc2ncnc3c2cnn3-c2ccccc2)cn1` [Example 19, 6-{[2-(dimethylamino)ethyl]amino}nicotinaldehyde (1-phenyl-1H-pyrazolo[3,4-d]pyrimidin-4-yl)hydrazone hydrochloride]: on GSK-3β, the IC50 is less than 100 nM.

With `O=S(=O)(NCCN1CCOCC1)c1ccc(/C=N/Nc2ncnc3c2cnn3-c2ccccc2)cc1` [Example 21, N-(2-morpholin-4-ylethyl)-4-{(E)-[(1-phenyl-1H-pyrazolo[3,4-d]pyrimidin-4-yl)hydrazono]methyl}benzenesulfonamide], the IC50 on GSK-3β is less than 100 nM.

For `CN(C)CCNS(=O)(=O)c1ccc(/C=N/Nc2ncnc3c2cnn3-c2ccccc2)cc1` [Example 22, N[2-(dimethylamino)ethyl]-4-[{(E)[(1-phenyl-1H-pyrazolo[3,4-d]pyrimidin-4-yl)hydrazono]methyl}benzenesulfonamide hydrochloride], the IC50 on GSK-3β is less than 100 nM.

Regarding `O=S(=O)(NCCCN1CCCC1)c1ccc(/C=N/Nc2ncnc3c2cnn3-c2ccccc2)cc1` [Example 23, 4-{(E)-[(1-phenyl-1H-pyrazolo[3,4-d]pyrimidin-4-yl)hydrazono]methyl}-N-(3-pyrrolidin-1-ylpropyl)benzenesulfonamide], on GSK-3β, the IC50 is less than 100 nM.

With `O=C(NCc1ccccn1)c1ccc(/C=N/Nc2ncnc3c2cnn3-c2ccccc2)cc1` [Example 28, 4-{(E)-[(1-phenyl-1H-pyrazolo[3,4-d]pyrimidin-4-yl)hydrazono]methyl}-N-(pyridin-2-ylmethyl)benzamide], the IC50 at GSK-3β is 100 to 1000 nM.

Turning to `CN(C)CCNC(=O)c1cccc(/C=N/Nc2ncnc3c2cnn3-c2ccccc2)c1` [Example 40, N-[2-(dimethylamino)ethyl]-3-{(E)-[(1-phenyl-1H-pyrazolo[3,4-d]pyrimidin-4-yl)hydrazono]methyl}benzamide], at GSK-3β, the IC50 was less than 100 nM.

As for `CS(=O)(=O)CCNC(=O)c1cccc(/C=N/Nc2ncnc3c2cnn3-c2ccccc2)c1` [Example 41], the IC50 on GSK-3β is 100 to 1000 nM.

In the case of `O=C(NCCN1CCOCC1)c1cccc(/C=N/Nc2ncnc3c2cnn3-c2ccccc2)c1` [Example 42, N-(2-morpholin-4-ylethyl)-3-{(E)-[(1-phenyl-1H-pyrazolo[3,4-d]pyrimidin-4-yl)hydrazono]methyl}benzamide], at GSK-3β, the IC50 is 100 to 1000 nM.

On to `CCc1ccc(/C=N/Nc2ncnc3c2cnn3-c2ccccc2)o1` [Example 57, 5-Ethyl-2-furaldehyde [1-(phenyl)-1H-pyrazolo[3,4-d]pyrimidin-4-yl]hydrazone], for which the IC50 at GSK-3β was 1000 to 10000 nM.

For `Cc1ccc(/C=N/Nc2ncnc3c2cnn3-c2ccccc2)o1` [Example 59, 5-Methyl-2-furaldehyde [1-(phenyl)-1H-pyrazolo[3,4-d]pyrimidin-4-yl]hydrazone], the IC50 at GSK-3β was 100 to 1000 nM.

As to `C(=N\Nc1ncnc2c1cnn2-c1ccccc1)/c1ccnc2ccccc12` [Example 62, 4-Quinolinecarboxaldehyde [1-(phenyl)-1H-pyrazolo[3,4-d]pyrimidin-4-yl]hydrazone], the IC50 on GSK-3β was 1000 to 10000 nM.
